Test results published in patent US20240148821A1, “PHARMACEUTICAL USE OF CYCLIC PEPTIDE COMPOUND” (CHUGAI SEIYAKU KABUSHIKI KAISHA, priority 2021, published 2024).
Numbered stars: 1 amine (or outer) side, 2 acyl side, 3 side chain; on linkers, the order of the positions; unused ones are H or OH. Bridge positions count the residues as written; N and C are the ends. Square brackets hold non-standard residues; d marks the D form. Peptide text beside a SMILES is read from it. * marks the point of attachment. hPhe(3,5-F2-4-CF3) = N[C@@H](CCc1cc(F)c(C(F)(F)F)c(F)c1)C(=O)O; hPhe(3-Cl-4-CF3) = N[C@@H](CCc1ccc(C(F)(F)F)c(Cl)c1)C(=O)O; hPhe(3-F,4-CF3) = N[C@@H](CCc1ccc(C(F)(F)F)c(F)c1)C(=O)O; NMePhe(4-CF3) = CN[C@@H](Cc1ccc(C(F)(F)F)cc1)C(=O)O; 3Oxa8azabicyclo(3.2.1)octane = C1CC2COCC1N2*; NEtPhe(4-Me) = CCN[C@@H](Cc1ccc(C)cc1)C(=O)O; NMeAbu(4,4,4-F3) = CN[C@@H](CC(F)(F)F)C(=O)O; NMePhe(4-Me) = CN[C@@H](Cc1ccc(C)cc1)C(=O)O; NMedβ3hAla = C[C@H](CC(=O)[*:2])N(C)[*:1]; NMeNva(5,5-F2) = CN[C@@H](CCC(F)F)C(=O)O; NMeGly(cPent) = CN[C@H](C(=O)O)C1CCCC1; NMeCha = CN[C@@H](CC1CCCCC1)C(=O)O; NMeGly(cPr) = CN[C@H](C(=O)O)C1CC1; Hyp = O=C(O)[C@@H]1C[C@@H](O)CN1; NMeAhp(2) = CCCCC[C@H](NC)C(=O)O; NMeChg = CN[C@H](C(=O)O)C1CCCCC1; NMeI = CC[C@H](C)[C@H](NC)C(=O)O; NMeD = CN[C@@H](CC(=O)O)C(=O)O; NMeL = CN[C@@H](CC(C)C)C(=O)O; NEtAla = CCN[C@@H](C)C(=O)O; NMeV = CN[C@H](C(=O)O)C(C)C; NMeA = CN[C@@H](C)C(=O)O; NMeAib = CNC(C)(C)C(=O)O; Piperidide = C1CCN(*)CC1; Pyrrolidide = C1CCN(*)C1; Ac5c = NC1(C(=O)O)CCCC1; Aze = O=C(O)[C@@H]1CCN1; Sar = CNCC(=O)O

What was measured:
[1] = biological target: protein-protein interaction between Kras and SOS1 (biotin-tagged human Kras loaded with GDP, His-tagged human SOS1) (Homo sapiens (Human), UniProt P01116, G12D); assay: Protein-protein interaction inhibition between Kras and SOS1 (KrasG12D-SOS PPI) using AlphaScreen; type: biochemical; settings: AlphaScreen; biotin-tagged human Kras loaded with GDP, His-tagged human SOS1; read-out: KRAS G12D-SOS PPI IC50;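 also: kras produced in E. coli, Ni-coupled donor beads and streptavidin acceptor beads, excitation 680 nm with emission detected at 520–620 nm via singlet oxygen transfer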
[2] = system: Human pancreatic cancer cell line AsPC-1 (G12D mutation Kras); assay: AsPC-1 cell growth inhibition (AsPC-1 CGI); type: cell-based; settings: read-out: AsPC-1 cell growth inhibition, 50% growth inhibitory concentration (IC50 value); 96 hours, CellTiter-Glo, values classified in ranges
Experimental: Test compounds were serially dilated with dimethyl sulfoxide, and 200 nL was then dispensed to a U-bottom 96-well plate using Labcyte Echo. […] The cell suspension was dispensed to a. plate containing a test compound at 100 μL per well and incubated at 37° C. in a 5% carbon dioxide gas incubator. 96 hours later, 80 μL of CellTiter-Glo (Promega) was added to each well and fluorescence was measured.

| Structure (SMILES) | IC50 [1] | IC50 [2] |
| --- | --- | --- |
| CC[C@H](C)[C@@H]1NC(=O)[C@H](CC(C)C)N(C)C(=O)C[C@@H](C(=O)N2CCCCC2)N(C)C(=O)[C@H](C(C)C)N(C)C(=O)C2(CCCC2)NC(=O)[C@@H]2CCCN2C(=O)[C@H](CCc2ccc(C(F)(F)F)c(Cl)c2)NC(=O)CN(C)C(=O)[C@H](CCC(F)F)N(C)C(=O)[C@@H]2CCN2C(=O)[C@H](C)N(C)C1=O [Compound 1769] ([NMeL]I[NMeA][Aze][NMeNva(5,5-F2)][Sar][hPhe(3-Cl-4-CF3)]P[Ac5c][NMeV][NMeD]-Piperidide; lactam N-11) | 11 nM | > 500 nM |
| CC[C@H](C)[C@@H]1NC(=O)[C@H](CC(C)C)N(C)C(=O)C[C@@H](C(=O)N2CCCCC2)N(C)C(=O)[C@H](C(C)C)N(C)C(=O)C2(CCCC2)NC(=O)[C@@H]2CCCN2C(=O)[C@H](CCc2ccc(C(F)(F)F)c(Cl)c2)NC(=O)CN(C)C(=O)[C@H](CC(F)(F)F)N(C)C(=O)[C@@H]2CCN2C(=O)[C@H](C)N(C)C1=O [Compound 1665] ([NMeL]I[NMeA][Aze][NMeAbu(4,4,4-F3)][Sar][hPhe(3-Cl-4-CF3)]P[Ac5c][NMeV][NMeD]-Piperidide; lactam N-11) | 19 nM | > 500 nM |
| CCO[C@@H]1C[C@H]2C(=O)NC3(CCCC3)C(=O)N(C)[C@@H](C3CCCC3)C(=O)N(C)[C@H](C)CC(=O)N(C)[C@@H](CC(C)C)C(=O)N[C@@H]([C@@H](C)CC)C(=O)N(C)[C@@H](C)C(=O)N3CC[C@H]3C(=O)N(CC)[C@@H](Cc3ccc(C)cc3)C(=O)N(C)CC(=O)N[C@@H](CCc3cc(F)c(C(F)(F)F)c(F)c3)C(=O)N2C1 [Compound 432] (cyclo([Ac5c][NMeGly(cPent)][NMedβ3hAla][NMeL]I[NMeA][Aze][NEtPhe(4-Me)][Sar][hPhe(3,5-F2-4-CF3)][Hyp](Et))) | 4.5 nM | ≤ 20 nM |
| CCO[C@@H]1C[C@H]2C(=O)NC3(CCCC3)C(=O)N(C)[C@@H]([C@@H](C)CC)C(=O)N(C)[C@H](C(=O)N3CCCC3)CC(=O)N(C)[C@@H](CC(C)C)C(=O)N[C@@H]([C@@H](C)CC)C(=O)N(C)[C@@H](C)C(=O)N3CC[C@H]3C(=O)N(C)[C@@H](Cc3ccc(C(F)(F)F)cc3)C(=O)N(C)CC(=O)N[C@@H](CCc3ccc(C(F)(F)F)c(Cl)c3)C(=O)N2C1 [Compound 1335] ([NMeL]I[NMeA][Aze][NMePhe(4-CF3)][Sar][hPhe(3-Cl-4-CF3)][Hyp](Et)[Ac5c][NMeI][NMeD]-Pyrrolidide; lactam N-11) | 0.49 nM | ≤ 20 nM |
| CC[C@H](C)[C@@H]1NC(=O)[C@H](CC(C)C)N(C)C(=O)C[C@@H](C(=O)N2CCCCC2)N(C)C(=O)[C@H](C2CC2)N(C)C(=O)C2(CCCC2)NC(=O)[C@@H]2CCCN2C(=O)[C@H](CCc2ccc(C(F)(F)F)c(Cl)c2)NC(=O)CN(C)C(=O)[C@H](CC2CCCCC2)N(C)C(=O)[C@@H]2CCN2C(=O)[C@H](C)N(C)C1=O [Compound 1822] ([NMeL]I[NMeA][Aze][NMeCha][Sar][hPhe(3-Cl-4-CF3)]P[Ac5c][NMeGly(cPr)][NMeD]-Piperidide; lactam N-11) | 50 nM | > 500 nM |
| CC[C@H](C)[C@@H]1NC(=O)[C@H](CC(C)C)N(C)C(=O)C[C@@H](C(=O)N2CCCCC2)N(C)C(=O)[C@H](C2CCCCC2)N(C)C(=O)C2(CCCC2)NC(=O)[C@H](C)N(CC)C(=O)[C@H](CCc2ccc(C(F)(F)F)c(Cl)c2)NC(=O)CN(C)C(=O)[C@H](CC2CCCCC2)N(C)C(=O)CN(C)C(=O)CN(C)C1=O [Compound 1045] ([NMeL]I[Sar][Sar][NMeCha][Sar][hPhe(3-Cl-4-CF3)][NEtAla][Ac5c][NMeChg][NMeD]-Piperidide; lactam N-11) | 6.7 nM | > 500 nM |
| CCCCC[C@H]1C(=O)N[C@@H]([C@@H](C)CC)C(=O)N[C@@H](C)C(=O)N2CC[C@H]2C(=O)N(C)[C@@H](Cc2ccc(C)cc2)C(=O)N(C)CC(=O)N[C@@H](CCc2ccc(C(F)(F)F)c(Cl)c2)C(=O)N2CCC[C@H]2C(=O)NC2(CCCC2)C(=O)N(C)[C@@H](C2CCCC2)C(=O)N(C)[C@H](C(=O)N(C)C)CC(=O)N1C [Compound 1059] ([NMeAhp(2)]IA[Aze][NMePhe(4-Me)][Sar][hPhe(3-Cl-4-CF3)]P[Ac5c][NMeGly(cPent)][NMeD]-NMe2; lactam N-11) | 0.64 nM | ≤ 20 nM |
| CCO[C@@H]1C[C@H]2C(=O)NC3(CCCC3)C(=O)N(C)[C@@H](C3CCCCC3)C(=O)N(C)[C@H](C(=O)N3C4CCC3COC4)CC(=O)N(C)[C@@H](CC(C)C)C(=O)N[C@@H]([C@@H](C)CC)C(=O)N(C)CC(=O)N(C)CC(=O)N(C)[C@@H](CC3CCCCC3)C(=O)N(C)CC(=O)N[C@@H](CCc3cc(F)c(C(F)(F)F)c(F)c3)C(=O)N2C1 [Compound 1341] ([NMeL]I[Sar][Sar][NMeCha][Sar][hPhe(3,5-F2-4-CF3)][Hyp](Et)[Ac5c][NMeChg][NMeD]-{3Oxa8azabicyclo(3.2.1)octane}; lactam N-11) | 0.82 nM | ≤ 20 nM |
| CC[C@H](C)[C@@H]1NC(=O)[C@H](CC(C)C)N(C)C(=O)C[C@@H](C)N(C)C(=O)[C@H](CC(C)C)NC(=O)C(C)(C)N(C)C(=O)[C@H](CC(C)C)NC(=O)[C@H](CCc2ccc(C(F)(F)F)c(F)c2)NC(=O)CN(C)C(=O)[C@H](CC2CCCCC2)N(C)C(=O)CN(C)C(=O)CN(C)C1=O [Compound 883] (cyclo(I[Sar][Sar][NMeCha][Sar][hPhe(3-F,4-CF3)]L[NMeAib]L[NMedβ3hAla][NMeL])) | 49 nM | > 500 nM |
